Laboratory results reported in patent US12186401B2, “Amide-based proteolysis modulators of B-rapidly accelerated fibrosarcoma (BRAF) and associated uses” (Ontario Institute for Cancer Research (OICR), priority 2019, dated 2025).
Like-named read-outs stand apart in the source and are kept apart here.

How the values were obtained:
B-Raf (V600E) (h) = B-Raf (V600E) (h) (Homo sapiens, UniProt P15056, V600E); experiment: Kinase inhibition assay B-Raf (V600E) (h), radiometric 33P-ATP filter assay; format: biochemical; conditions: read-out: IC50(nM) BRAF^V600E
Protocol: (§1) b-Raf (V599E) (h) was incubated with 25 mM Tris/HCl pH 7.5, 0.2 mM EGTA, 10 mM DTT, 0.01% Triton X-100, 0.5 mM, sodium orthovandate, 0.5 mM […], 1% glycerol, 34 nM unactive MEK1, 69 nM unactive MAPK2, 0.5 mg/mL myelin basic protein, and 10 mM Magnesium acetate and […] (specific activity and concentration as required). The reaction was initiated by the addition of the Mg/ATP mix. After incubation for 40 minutes at room temperature, the reaction was stopped by the addition of phosphoric acid to a concentration of 0.5%. 10 μL of the reaction was then spotted onto a P30 filtermat and washed four times for 4 minutes in 0.425% phosphoric acid and once in methanol prior to drying and scintillation counting. Similar protocols were used for other kinase assays employing the kinase of interest to generate the data in Table 1.

CRAF [1] = target: T1, CRAF (Homo sapiens, UniProt P04049); experiment: Kinase inhibition assay CRAF (similar protocol); format: biochemical
Protocol: as §1

ARAF [2] = target: T2, ARAF (Homo sapiens, UniProt P10398); experiment: Kinase inhibition assay ARAF (similar protocol); format: biochemical
T2 sequence (P10398 1-606): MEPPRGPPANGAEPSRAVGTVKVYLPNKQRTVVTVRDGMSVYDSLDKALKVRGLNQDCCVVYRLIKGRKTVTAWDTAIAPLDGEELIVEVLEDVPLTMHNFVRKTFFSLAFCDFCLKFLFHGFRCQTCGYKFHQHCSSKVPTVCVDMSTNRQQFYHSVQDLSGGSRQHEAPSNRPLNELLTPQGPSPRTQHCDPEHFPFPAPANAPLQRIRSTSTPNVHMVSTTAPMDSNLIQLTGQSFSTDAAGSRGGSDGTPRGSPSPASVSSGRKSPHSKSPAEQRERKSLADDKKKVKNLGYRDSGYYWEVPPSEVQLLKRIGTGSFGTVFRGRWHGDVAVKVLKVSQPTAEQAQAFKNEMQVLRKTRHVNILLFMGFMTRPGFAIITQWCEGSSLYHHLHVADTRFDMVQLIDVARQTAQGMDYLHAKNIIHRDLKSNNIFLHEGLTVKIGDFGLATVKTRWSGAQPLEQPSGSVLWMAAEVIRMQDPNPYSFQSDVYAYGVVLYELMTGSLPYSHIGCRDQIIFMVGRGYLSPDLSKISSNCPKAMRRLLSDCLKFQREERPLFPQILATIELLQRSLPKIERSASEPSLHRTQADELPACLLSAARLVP
Protocol: as §1

BRAF^V600E = target: T3, BRAF^V600E (Homo sapiens, UniProt P15056, V600E); experiment: Cellular degradation assay, Western blot of BRAF^V600E; format: cell-based
T3 construct: A375 or SK-Mel-28 cells were obtained from ATCC; host or cells: A375 or SK-Mel-28
Protocol: (§2) Cell culture and compound treatment: A375 or SK-Mel-28 cells were obtained from ATCC and cultured in Dulbecco's Modified Eagle Media (DMEM) supplemented with 10% FBS, penicillin and streptomycin, at 37° C., 5% CO2. Cells grown in 6-well plates were treated for 24 hours with test compounds (solubilized in DMSO) or 0.1% DMSO vehicle control. Cells were harvested by first washing with 1× phosphate-buffered saline (PBS), then scrapping into 1 ml of PBS supplemented with 1 mM phenylmethylsulfonylflouride (PMSF). Cell pellets were obtained after a centrifugation at 300-350×g for 2 min, and immediately snap frozen in liquid nitrogen.
(§3) Cell lysis and Western blot analysis: Cell pellets were thawed and lysed by pipetting in lysis buffer (50 mM HEPES (pH 7.4), 150 mM NaCl, 5 mM EDTA, 0.5% NP-40, 5 mM NaF, 10% glycerol), with Roche protease inhibitor cocktail (5056489001) and phosphatase inhibitor cocktail PhosStop (4906845001) added fresh before use. The whole cell lysate was clarified by centrifugation at 15,000-20,000×g for 20 min and supernatant was collected. Total protein concentration in the clarified lysate was determination by Bradford assay (Bio-Rad), and 30-50 ug of protein was separated through SDS-PAGE, transferred onto nitrocellulose membrane and subject to standard immunoblotting protocol. Band intensities were quantified by Bio-Rad Image Lab software. Antibodies to B-Raf (sc-5284), A-Raf (sc-166771), phosphor MEK1/2, pS218/222 (sc-7995), phosphor ERK1/2 (sc-7383) were purchased from Santa Cruz; C-Raf (9422), MEK1/2 (9122), ERK1/2 (9102) from Cell Signaling; p27 (610242) from BD Biosciences. Antibody to the loading control α-tubulin was obtained from Sigma-Aldrich (6199).

BRAF = BRAF (Homo sapiens, UniProt P15056); experiment: Kinase inhibition assay BRAF (similar protocol); format: biochemical
Protocol: as §1

[3] = test system: MEK and ERK kinase phosphorylation; experiment: Immunoblot of downstream MEK and ERK kinase phosphorylation in A375 cells; format: cell-based; conditions: A375 human melanoma cells, 24 hrs
Protocol: as §2
as §3, with “Antibodies to B-Raf (sc-5284), A-Raf (sc-166771), phosphor MEK1/2, pS218/222 (sc-7995), phosphor ERK1/2 (sc-7383) were purchased from Santa Cruz; C-Raf (9422), MEK1/2 (9122), ERK1/2 (9102) from Cell Signaling; p27 (610242) from BD Biosciences. Antibody to the loading control α-tubulin was obtained from Sigma-Aldrich (6199).” left out

ARAF [4] = target: T2, ARAF; experiment: Cellular degradation assay, Western blot of ARAF; format: cell-based; design: host or cells: A375; conditions: A375 human melanoma cells, 24 hrs; negative control 100 nM, PROTAC 0 to 4000 nM
Protocol: as §2
as §3, with “Antibodies to B-Raf (sc-5284), A-Raf (sc-166771), phosphor MEK1/2, pS218/222 (sc-7995), phosphor ERK1/2 (sc-7383) were purchased from Santa Cruz; C-Raf (9422), MEK1/2 (9122), ERK1/2 (9102) from Cell Signaling; p27 (610242) from BD Biosciences. Antibody to the loading control α-tubulin was obtained from Sigma-Aldrich (6199).” left out

CRAF [5] = target: T1, CRAF; experiment: Cellular degradation assay, Western blot of CRAF; format: cell-based; design: host or cells: A375; conditions: A375 human melanoma cells, 24 hrs; negative control 100 nM, PROTAC 0 to 4000 nM
Protocol: as §2
as §3, with “Antibodies to B-Raf (sc-5284), A-Raf (sc-166771), phosphor MEK1/2, pS218/222 (sc-7995), phosphor ERK1/2 (sc-7383) were purchased from Santa Cruz; C-Raf (9422), MEK1/2 (9122), ERK1/2 (9102) from Cell Signaling; p27 (610242) from BD Biosciences. Antibody to the loading control α-tubulin was obtained from Sigma-Aldrich (6199).” left out

[6] = Table 1, cells treated 24 hours, Western blot
[7] = Table 1, cells treated 24 hours, Western blot, read-out: DC50(nM) BRAF^V600E

T1 sequence (P04049 whole entry): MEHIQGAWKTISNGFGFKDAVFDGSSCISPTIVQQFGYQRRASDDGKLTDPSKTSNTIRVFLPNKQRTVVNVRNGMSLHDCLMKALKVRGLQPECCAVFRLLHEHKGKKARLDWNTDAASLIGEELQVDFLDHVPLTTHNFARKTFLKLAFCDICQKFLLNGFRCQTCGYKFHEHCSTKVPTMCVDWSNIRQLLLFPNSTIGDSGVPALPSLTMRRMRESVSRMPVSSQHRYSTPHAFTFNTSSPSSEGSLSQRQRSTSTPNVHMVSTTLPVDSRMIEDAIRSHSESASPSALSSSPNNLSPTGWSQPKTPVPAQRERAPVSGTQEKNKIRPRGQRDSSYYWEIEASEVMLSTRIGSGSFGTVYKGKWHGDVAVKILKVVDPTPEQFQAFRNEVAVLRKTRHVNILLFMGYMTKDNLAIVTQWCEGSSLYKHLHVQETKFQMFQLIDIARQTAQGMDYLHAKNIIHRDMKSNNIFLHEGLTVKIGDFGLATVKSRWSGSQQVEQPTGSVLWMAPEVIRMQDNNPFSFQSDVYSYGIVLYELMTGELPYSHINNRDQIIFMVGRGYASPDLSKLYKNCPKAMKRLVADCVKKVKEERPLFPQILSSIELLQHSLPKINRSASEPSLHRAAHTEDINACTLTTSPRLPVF
Chain of B-Raf (V600E) (h) (P15056 whole entry V600E): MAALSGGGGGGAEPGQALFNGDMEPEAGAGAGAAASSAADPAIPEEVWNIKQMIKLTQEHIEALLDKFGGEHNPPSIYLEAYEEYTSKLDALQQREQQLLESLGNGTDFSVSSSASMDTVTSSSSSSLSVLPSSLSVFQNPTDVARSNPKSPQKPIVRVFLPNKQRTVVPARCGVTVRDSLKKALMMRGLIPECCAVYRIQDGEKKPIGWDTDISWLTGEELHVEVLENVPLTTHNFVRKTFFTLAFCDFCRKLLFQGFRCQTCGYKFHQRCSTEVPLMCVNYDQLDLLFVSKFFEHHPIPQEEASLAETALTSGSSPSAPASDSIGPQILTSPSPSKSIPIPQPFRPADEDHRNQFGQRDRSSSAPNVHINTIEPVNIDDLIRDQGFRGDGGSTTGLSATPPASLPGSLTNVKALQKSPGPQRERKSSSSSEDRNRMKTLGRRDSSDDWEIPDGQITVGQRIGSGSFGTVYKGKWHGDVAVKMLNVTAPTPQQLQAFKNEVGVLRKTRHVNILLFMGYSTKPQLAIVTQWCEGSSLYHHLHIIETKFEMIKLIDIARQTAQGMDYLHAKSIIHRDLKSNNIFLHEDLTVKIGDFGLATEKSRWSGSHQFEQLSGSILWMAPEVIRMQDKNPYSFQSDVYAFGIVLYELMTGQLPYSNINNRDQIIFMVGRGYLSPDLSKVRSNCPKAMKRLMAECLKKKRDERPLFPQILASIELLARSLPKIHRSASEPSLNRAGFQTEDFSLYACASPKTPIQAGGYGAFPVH
T3 sequence (P15056 whole entry V600E): as above
Chain of BRAF (P15056 whole entry): as the sequence (P15056 whole entry V600E) above, with E600V counted along it

| IC50 (B-Raf (V600E) (h)) [nM] | IC50 (CRAF [1]) [nM] | IC50 (ARAF [2]) [nM] | degradation of BRAF^V600E by immunoblot (FIGS. 4 and 5) (BRAF^V600E; A375 human melanoma cells, 24 hrs, listed as Pmd-PEG3-Dabrafenib#1) | DCmax(%) BRAF^V600E (BRAF^V600E; [6]) [%] | degradation of BRAF^V600E by immunoblot (FIGS. 4 and 5) (BRAF^V600E; A375 human melanoma cells, 24 hrs) | DC50 (BRAF^V600E; [7]) [nM] | IC50 (BRAF) [nM] | DCmax, degradation of BRAF^V600E kinase (FIG. 3C) (BRAF^V600E; A375 human melanoma cells, 24 hrs, 0 to 4000 nM) [%] | DC50 (BRAF^V600E; A375 human melanoma cells, 24 hrs, 0 to 4000 nM, read-out: DC50, degradation of BRAF^V600E kinase (FIG. 3C)) [nM] | IC50 ([3]; A-375, read-out: BRAF^V600E IC50, inhibition of downstream MEK and ERK kinase phosphorylation, 0 to 4000 nM) [nM] | degradation activity on ARAF (FIG. 3C) (ARAF [4]) | degradation activity on CRAF (FIG. 3C) (CRAF [5]) | SMILES | inhibition of downstream MEK and ERK kinase phosphorylation (FIG. 3C) ([3]; negative control 100 nM, PROTAC 0 to 4000 nM) |
| --- | --- | --- | --- | --- | --- | --- | --- | --- | --- | --- | --- | --- | --- | --- |
| 47 | 22 | > 10000 | No degradation | 0 | – | – | – | – | – | – | – | – | CCCS(=O)(=O)Nc1ccc(F)c(-n2cc(-c3cncnc3)c3nc(N(C)C4CCN(C(=O)CCOCCOCCOCCNc5cccc6c5C(=O)N(C5CCC(=O)NC5=O)C6=O)CC4)ccc32)c1F (stereo not drawn) [Entry 2] | – |
| 65 | 532 | > 10000 | – | 60 | Degradation of BRAF^V600E was observed | 10 | – | – | – | – | – | – | CCCS(=O)(=O)Nc1ccc(F)c(-n2cc(-c3cncnc3)c3nc(N(C)C4CCN(C(=O)CCOCCOCCOCCNc5cccc6c5C(=O)N(C5CCC(=O)NC5=O)C6=O)CC4)ccc32)c1F (stereo not drawn) [Entry 16, N-(3-(5-((1-(3-(2-(2-(2-((2-(2,6-dioxopiperidin-3-yl)-1,3-dioxoisoindolin-4-yl)amino)ethoxy)ethoxy)ethoxy)propanoyl)piperidin-4-yl)(methyl)amino)-3-(pyrimidin-5-yl)-1H-pyrrolo[3,2-b]pyridin-1-yl)-2,4-difluorophenyl)propane-1-sulfonamide] | – |
| 12 | 167 | 2220 | – | 82 | – | 15 | 58 | 80 | 20 | 20 | not ARAF and CRAF | not ARAF and CRAF | CCCS(=O)(=O)Nc1ccc(F)c(-n2cc(-c3cncnc3)c3nc(N(C)C4CCN(C(=O)CCOCCOCCOCCOCCNc5cccc6c5C(=O)N(C5CCC(=O)NC5=O)C6=O)CC4)ccc32)c1F (stereo not drawn) [Entry 17, N-(3-(5-((1-(1-((2-(2,6-dioxopiperidin-3-yl)-1,3-dioxoisoindolin-4-yl)amino)-3,6,9,12-tetraoxapentadecan-15-oyl)piperidin-4-yl)(methyl)amino)-3-(pyrimidin-5-yl)-1H-pyrrolo[3,2-b]pyridin-1-yl)-2,4-difluorophenyl)propane-1-sulfonamide] | inhibition of downstream MEK and ERK kinase phosphorylation |

| SMILES | IC50 (B-Raf (V600E) (h)) [nM] | IC50 (CRAF [1]) [nM] | IC50 (ARAF [2]) [nM] | degradation of BRAF^V600E by immunoblot (FIGS. 4 and 5) (BRAF^V600E; A375 human melanoma cells, 24 hrs, listed as Pmd-PEG3-Dabrafenib#1) | DCmax(%) BRAF^V600E (BRAF^V600E; [6]) [%] | degradation of BRAF^V600E by immunoblot (FIGS. 4 and 5) (BRAF^V600E; A375 human melanoma cells, 24 hrs) | DC50 (BRAF^V600E; [7]) [nM] | IC50 (BRAF) [nM] | DCmax, degradation of BRAF^V600E kinase (FIG. 3C) (BRAF^V600E; A375 human melanoma cells, 24 hrs, 0 to 4000 nM) [%] | DC50 (BRAF^V600E; A375 human melanoma cells, 24 hrs, 0 to 4000 nM, read-out: DC50, degradation of BRAF^V600E kinase (FIG. 3C)) [nM] | IC50 ([3]; A-375, read-out: BRAF^V600E IC50, inhibition of downstream MEK and ERK kinase phosphorylation, 0 to 4000 nM) [nM] | degradation activity on ARAF (FIG. 3C) (ARAF [4]) | degradation activity on CRAF (FIG. 3C) (CRAF [5]) | inhibition of downstream MEK and ERK kinase phosphorylation (FIG. 3C) ([3]; negative control 100 nM, PROTAC 0 to 4000 nM) |
| --- | --- | --- | --- | --- | --- | --- | --- | --- | --- | --- | --- | --- | --- | --- |
| CCCS(=O)(=O)Nc1ccc(F)c(-n2cc(-c3cncnc3)c3nc(N(C)C4CCN(CC)CC4)ccc32)c1F [Entry 15, N-[3-[5-[(1-ethylpiperidin-4-yl)-methylamino]-3-pyrimidin-5-ylpyrrolo[3,2-b]pyridine-1-yl]-2,4-difluorophenyl]propane-1-sulfonamide, reference compound] | 31 | 64 | 323 | – | 0 | – | – | – | – | – | – | – | – | – |
